Assay results taken from patent US9840513B2 (AbbVie S.à.r.l., priority 2015, dated 2017).

Molecular target: T1, F508delCFTR cell surface expression in CFBE41o-F508delCFTR-HRP cells (Homo sapiens, UniProt P13569, DEL508-508)
T1 construct: fused on or other part: Horseradish peroxidase (HRP) reporter inserted in the fourth exofacial (extracellular) loop of CFTR; expression is doxycycline-inducible
Assay: Cell Surface Expression-Horse Radish Peroxidase (CSE-HRP) Assay
Type: cell-based
Conditions: for EC50: CFBE41o-F508delCFTR-HRP cells, 18-24 hours at 33° C., 8-point curve, highest concentration 20 μM; for Maximum % activity (%): maximum at any tested concentration, normalized to on-plate positive control (3 μM)
Procedure, shortened: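 CFBE41o- cells with HRP-tagged F508delCFTR, expression induced by 0.5 μg/mL doxycycline for 72 h at 37 °C, then compound for 18-24 h at 33 °C (8-point, 3-fold, top 20 μM). Surface HRP measured by luminol luminescence; % activity normalised to 3 μM positive-control corrector; EC50 from variable-slope sigmoidal fit, three replicate plates.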

T1 sequence (P13569 with tags, fused parts or gaps DEL508-508 limits assumed): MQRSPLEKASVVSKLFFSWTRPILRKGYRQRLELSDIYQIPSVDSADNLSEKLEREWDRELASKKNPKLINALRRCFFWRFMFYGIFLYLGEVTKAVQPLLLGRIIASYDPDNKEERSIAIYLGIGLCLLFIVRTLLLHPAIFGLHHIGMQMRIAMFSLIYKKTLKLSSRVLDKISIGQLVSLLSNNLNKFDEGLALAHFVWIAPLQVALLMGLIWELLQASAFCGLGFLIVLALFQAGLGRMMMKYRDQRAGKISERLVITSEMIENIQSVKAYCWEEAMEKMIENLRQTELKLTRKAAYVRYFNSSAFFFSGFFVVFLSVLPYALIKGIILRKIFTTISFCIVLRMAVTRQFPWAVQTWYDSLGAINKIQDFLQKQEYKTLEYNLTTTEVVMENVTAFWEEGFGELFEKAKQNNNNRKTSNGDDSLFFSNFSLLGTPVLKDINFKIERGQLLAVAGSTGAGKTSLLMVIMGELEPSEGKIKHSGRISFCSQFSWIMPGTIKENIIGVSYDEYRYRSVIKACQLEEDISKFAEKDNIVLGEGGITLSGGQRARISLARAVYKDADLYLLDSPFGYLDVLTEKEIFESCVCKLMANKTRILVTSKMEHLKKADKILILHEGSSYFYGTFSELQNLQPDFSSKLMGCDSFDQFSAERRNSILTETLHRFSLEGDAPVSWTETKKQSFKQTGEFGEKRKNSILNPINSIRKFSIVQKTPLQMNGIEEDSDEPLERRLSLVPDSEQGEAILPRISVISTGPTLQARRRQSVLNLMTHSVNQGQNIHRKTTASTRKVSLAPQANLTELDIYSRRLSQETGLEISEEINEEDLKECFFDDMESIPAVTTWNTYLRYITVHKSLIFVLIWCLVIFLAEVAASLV
T1 sequence (P13569 919-1480 limits assumed, stated change not applied): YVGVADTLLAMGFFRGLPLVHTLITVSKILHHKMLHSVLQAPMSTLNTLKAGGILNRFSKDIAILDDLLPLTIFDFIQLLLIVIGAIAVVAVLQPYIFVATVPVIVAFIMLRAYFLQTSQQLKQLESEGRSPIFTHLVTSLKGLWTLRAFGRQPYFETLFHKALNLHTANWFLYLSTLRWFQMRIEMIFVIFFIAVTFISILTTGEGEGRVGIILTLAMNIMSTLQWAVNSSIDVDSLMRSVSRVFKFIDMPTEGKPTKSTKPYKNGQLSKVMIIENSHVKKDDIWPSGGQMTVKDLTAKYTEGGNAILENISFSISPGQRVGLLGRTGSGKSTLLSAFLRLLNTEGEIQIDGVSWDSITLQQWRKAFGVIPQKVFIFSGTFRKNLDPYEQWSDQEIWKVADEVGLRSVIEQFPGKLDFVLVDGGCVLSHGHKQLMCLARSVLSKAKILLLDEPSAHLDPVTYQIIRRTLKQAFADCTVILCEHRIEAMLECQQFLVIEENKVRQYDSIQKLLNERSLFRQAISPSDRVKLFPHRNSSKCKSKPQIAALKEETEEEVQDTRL

Row | EC50 | Maximum % activity (%) | SMILES
1 | 3040 nM | 136% | CN1CC2CN(c3cccc(NC(=O)C4(C)COc5cc6c(cc54)OC(F)(F)O6)n3)CC2C1 (stereo not drawn) [Example 107, 2,2-difluoro-7-methyl-N-[6-(5-methylhexahydropyrrolo[3,4-c]pyrrol-2(1H)-yl)pyridin-2-yl]-6,7-dihydro-2H-furo[2,3-f][1,3]benzodioxole-7-carboxamide]
2 | 580 nM | 89% | C[C@]1(C(=O)Nc2cccc(N3CCC(S(C)(=O)=O)C3)n2)COc2cc3c(cc21)OC(F)(F)O3 (stereo partly drawn) [Example 109, (7R)-2,2-difluoro-N-{6-[3-(methanesulfonyl)pyrrolidin-1-yl]pyridin-2-yl}-7-methyl-6,7-dihydro-2H-furo[2,3-f][1,3]benzodioxole-7-carboxamide]
3 | 3020 nM | 120% | C[C@]1(C(=O)Nc2cccc(N3CCC(CO)(CCl)C3)n2)COc2cc3c(cc21)OC(F)(F)O3 (stereo partly drawn) [Example 110, (7R)—N-{6-[3-(chloromethyl)-3-(hydroxymethyl)pyrrolidin-1-yl]pyridin-2-yl}-2,2-difluoro-7-methyl-6,7-dihydro-2H-furo[2,3-f][1,3]benzodioxole-7-carboxamide]
4 | 540 nM | 91% | C[C@]1(C(=O)Nc2cccc(N3CC[C@@H](S(C)(=O)=O)C3)n2)COc2cc3c(cc21)OC(F)(F)O3 [Example 111, (7R)-2,2-difluoro-N-{6-[(3R)-3-(methanesulfonyl)pyrrolidin-1-yl]pyridin-2-yl}-7-methyl-6,7-dihydro-2H-furo[2,3-f][1,3]benzodioxole-7-carboxamide]
5 | 1390 nM | 147% | C[C@]1(C(=O)Nc2cccc(N3CC4CCCC4(C(=O)O)C3)n2)COc2cc3c(cc21)OC(F)(F)O3 (stereo partly drawn) [Example 117, 2-(6-{[(7R)-2,2-difluoro-7-methyl-6,7-dihydro-2H-furo[2,3-f][1,3]benzodioxole-7-carbonyl]amino}pyridin-2-yl)hexahydrocyclopenta[c]pyrrole-3a(1H)-carboxylic acid]
6 | 1220 nM | 123% | C[C@]1(C(=O)Nc2cccc(N3CCCC3)n2)COc2cc3c(cc21)OC(F)(F)O3 [Example 118, (7R)-2,2-difluoro-7-methyl-N-[6-(pyrrolidin-1-yl)pyridin-2-yl]-6,7-dihydro-2H-furo[2,3-f][1,3]benzodioxole-7-carboxamide]
7 | 1180 nM | 136% | C[C@]1(C(=O)Nc2cccc(N3CCCCC3)n2)COc2cc3c(cc21)OC(F)(F)O3 [Example 119, (7R)-2,2-difluoro-7-methyl-N-[6-(piperidin-1-yl)pyridin-2-yl]-6,7-dihydro-2H-furo[2,3-f][1,3]benzodioxole-7-carboxamide]

The remaining lines, values behind:

Row | SMILES | EC50 | Maximum % activity (%)
8 | C[C@]1(C(=O)Nc2cc(-c3ccccc3)nn(C[C@H](O)[C@H](O)CO)c2=O)COc2cc3c(cc21)OC(F)(F)O3 [Example 105, (7R)-2,2-difluoro-7-methyl-N-{3-oxo-6-phenyl-2-[(2S,3R)-2,3,4-trihydroxybutyl]-2,3-dihydropyridazin-4-yl}-6,7-dihydro-2H-furo[2,3-f][1,3]benzodioxole-7-carboxamide] | > 20000 nM | 5%
9 | CC1(C)OC[C@H]([C@H](O)Cn2nc(-c3ccccc3)cc(NC(=O)[C@@]3(C)COc4cc5c(cc43)OC(F)(F)O5)c2=O)O1 [Example 106, (7R)—N-(2-{(2R)-2-[(4R)-2,2-dimethyl-1,3-dioxolan-4-yl]-2-hydroxyethyl}-3-oxo-6-phenyl-2,3-dihydropyridazin-4-yl)-2,2-difluoro-7-methyl-6,7-dihydro-2H-furo[2,3-f][1,3]benzodioxole-7-carboxamide] | 14100 nM | 18%
10 | CC(C)CN1CC2CN(c3cccc(NC(=O)C4(C)COc5cc6c(cc54)OC(F)(F)O6)n3)CC2C1 (stereo not drawn) [Example 108, 2,2-difluoro-7-methyl-N-{6-[5-(2-methylpropyl)hexahydropyrrolo[3,4-c]pyrrol-2(1H)-yl]pyridin-2-yl}-6,7-dihydro-2H-furo[2,3-f][1,3]benzodioxole-7-carboxamide] | 1990 nM | 89%
11 | COC(=O)[C@H]1CN(c2cccc(NC(=O)[C@@]3(C)COc4cc5c(cc43)OC(F)(F)O5)n2)C[C@@H]1c1ccccc1 [Example 112, methyl (3R,4S)-1-(6-{[(7R)-2,2-difluoro-7-methyl-6,7-dihydro-2H-furo[2,3-f][1,3]benzodioxole-7-carbonyl]amino}pyridin-2-yl)-4-phenylpyrrolidine-3-carboxylate] | 990 nM | 131%
12 | C[C@]1(C(=O)Nc2cccc(N3CCC(c4ccc(F)cc4)C3)n2)COc2cc3c(cc21)OC(F)(F)O3 (stereo partly drawn) [Example 114, (7R)-2,2-difluoro-N-{6-[3-(4-fluorophenyl)pyrrolidin-1-yl]pyridin-2-yl}-7-methyl-6,7-dihydro-2H-furo[2,3-f][1,3]benzodioxole-7-carboxamide] | 750 nM | 98%
13 | CC1CN(c2cccc(NC(=O)[C@@]3(C)COc4cc5c(cc43)OC(F)(F)O5)n2)CC1C(=O)O (stereo partly drawn) [Example 116, 1-(6-{[(7R)-2,2-difluoro-7-methyl-6,7-dihydro-2H-furo[2,3-f][1,3]benzodioxole-7-carbonyl]amino}pyridin-2-yl)-4-methylpyrrolidine-3-carboxylic acid] | 1100 nM | 136%
14 | Cc1cc(C(=O)O)ccc1-c1cccc(NC(=O)[C@@]2(C)COc3cc4c(cc32)OC(F)(F)O4)n1 [Example 120, 4-(6-{[(7R)-2,2-difluoro-7-methyl-6,7-dihydro-2H-furo[2,3-f][1,3]benzodioxole-7-carbonyl]amino}pyridin-2-yl)-3-methylbenzoic acid] | 1440 nM | 253%
15 | Cc1c(C(=O)O)cccc1-c1cccc(NC(=O)[C@@]2(C)COc3cc4c(cc32)OC(F)(F)O4)n1 [Example 122, 3-(6-{[(7R)-2,2-difluoro-7-methyl-6,7-dihydro-2H-furo[2,3-f][1,3]benzodioxole-7-carbonyl]amino}pyridin-2-yl)-2-methylbenzoic acid] | 1940 nM | 173%
16 | C[C@]1(C(=O)Nc2cccc(-c3ccc(C(=O)O)cc3F)n2)COc2cc3c(cc21)OC(F)(F)O3 [Example 123, 4-(6-{[(7R)-2,2-difluoro-7-methyl-6,7-dihydro-2H-furo[2,3-f][1,3]benzodioxole-7-carbonyl]amino}pyridin-2-yl)-3-fluorobenzoic acid] | 1530 nM | 189%
17 | Cc1ccc(NC(=O)[C@@]2(C)COc3cc4c(cc32)OC(F)(F)O4)nc1-c1cccc(S(=O)(=O)NC2CC2)c1 [Example 124, (7R)—N-{6-[3-(cyclopropylsulfamoyl)phenyl]-5-methylpyridin-2-yl}-2,2-difluoro-7-methyl-6,7-dihydro-2H-furo[2,3-f][1,3]benzodioxole-7-carboxamide] | 740 nM | 124%
18 | C[C@]1(C(=O)Nc2cccc(-c3cccc(C(=O)O)c3F)n2)COc2cc3c(cc21)OC(F)(F)O3 [Example 125, 3-(6-{[(7R)-2,2-difluoro-7-methyl-6,7-dihydro-2H-furo[2,3-f][1,3]benzodioxole-7-carbonyl]amino}pyridin-2-yl)-2-fluorobenzoic acid] | 1390 nM | 136%
19 | Cc1ccc(NC(=O)[C@@]2(C)COc3cc4c(cc32)OC(F)(F)O4)nc1-c1cccc(C(O)CO)c1 (stereo partly drawn) [Example 126, (7R)—N-{6-[3-(1,2-dihydroxyethyl)phenyl]-5-methylpyridin-2-yl}-2,2-difluoro-7-methyl-6,7-dihydro-2H-furo[2,3-f][1,3]benzodioxole-7-carboxamide] | 620 nM | 140%
20 | Cc1ccc(NC(=O)[C@@]2(C)COc3cc4c(cc32)OC(F)(F)O4)nc1-c1cc(C(=O)O)cs1 [Example 127, 5-(6-{[(7R)-2,2-difluoro-7-methyl-6,7-dihydro-2H-furo[2,3-f][1,3]benzodioxole-7-carbonyl]amino}-3-methylpyridin-2-yl)thiophene-3-carboxylic acid] | 460 nM | 140%
21 | C[C@]1(C(=O)Nc2cccc(-c3cc(C(=O)O)ccc3F)n2)COc2cc3c(cc21)OC(F)(F)O3 [Example 128, 3-(6-{[(7R)-2,2-difluoro-7-methyl-6,7-dihydro-2H-furo[2,3-f][1,3]benzodioxole-7-carbonyl]amino}pyridin-2-yl)-4-fluorobenzoic acid] | 4960 nM | 172%
22 | Cc1ccc(C(=O)O)cc1-c1cccc(NC(=O)[C@@]2(C)COc3cc4c(cc32)OC(F)(F)O4)n1 [Example 129, 3-(6-{[(7R)-2,2-difluoro-7-methyl-6,7-dihydro-2H-furo[2,3-f][1,3]benzodioxole-7-carbonyl]amino}pyridin-2-yl)-4-methylbenzoic acid] | 2260 nM | 129%
23 | CC(C)(C)c1cc2cc(NC(=O)[C@@]3(C)COc4cc5c(cc43)OC(F)(F)O5)ccc2[nH]1 [Example 131, (7R)—N-(2-tert-butyl-1H-indol-5-yl)-2,2-difluoro-7-methyl-6,7-dihydro-2H-furo[2,3-f][1,3]benzodioxole-7-carboxamide] | 1310 nM | 173%
24 | CC(C)(C)c1cc2cc(NC(=O)[C@@]3(C)COc4cc5c(cc43)OC(F)(F)O5)c(F)cc2n1C[C@@H](O)COCc1ccccc1 [Example 132, (7R)—N-{1-[(2R)-3-(benzyloxy)-2-hydroxypropyl]-2-tert-butyl-6-fluoro-1H-indol-5-yl}-2,2-difluoro-7-methyl-6,7-dihydro-2H-furo[2,3-f][1,3]benzodioxole-7-carboxamide] | 330 nM | 138%
